A short description of data set [1]: Safety under fed conditions. The class given is in vivo, human. As to conditions: single dose 25 mg.
The subject of data set [2] is TLR7/8. As to conditions: in vitro and ex vivo; cited from earlier work.
The nature of data set [3]: Safety and tolerability assessments, whole study. It is filed as in vivo, human.
The subject of data set [4] is TLR7/8. The data set can be described thus: Ex vivo R848-stimulated whole blood cytokine release immunoassay, IL-6 secretion. The class given is in vivo, human.
In the next data set the test system is mouse models of SLE. The conditions noted are these: cited from earlier work.
Data set [5] is described as follows: Plasma pharmacokinetics, single 25 mg dose fed / food effect. It is filed as in vivo, human. The conditions noted are these: high-fat, high-calorie meal.
The nature of data set [6]: Treatment-emergent adverse events, single ascending dose. The class given is in vivo, human.

We go through one compound from publication PMC8377444 (Pharmacology Research & Perspectives, 2021).

Molecules are shown by their SMILES.

As to `N#Cc1ccc(N2C[C@H](N)C[C@H](C(F)(F)F)C2)c2cccnc12` [enpatoran], the “TEAEs reported during Part C” value in data set [1] is on record as “no TEAEs were reported”. The “Activation of TLR7/8” value in the data set on TLR7/8 [2] is given as “inhibit the activation of TLR7/8”. The “Dose dependence of TEAEs” value in data set [3] (Parts A and B) was “No dose‐dependent TEAEs were observed”. Moreover, the “Severity of TEAEs” value in data set [3] (Parts A and B, all TEAEs) is given as “mild to moderate”. In addition, the Tolerability entry in data set [3] (single and multiple oral doses up to 200 mg, fasting or fed) was “well tolerated”. In data set [3] (whole study), the Deaths entry is reported as “no deaths”, the “Discontinuations due to TEAEs” value is reported as “no discontinuations due to TEAEs” and the “Serious AEs” value is “No serious AEs occurred”. In addition, the “Changes in laboratory values, vital signs or ECGs” value in data set [3] (whole study period) is listed as “No clinically relevant changes”. Besides, in the data set with TLR7/8 [4] (200 mg QD, 25 mg BID and 50 mg BID), the “Inhibition of IL-6 secretion maintained throughout the dosing interval” value is given as “At least 60%”. For the same compound, the “Dose with maximum inhibition of ex vivo-stimulated IL-6 secretion” value in the data set on TLR7/8 [4] (doses up to 200 mg) amounted to 200 mg. For the same compound, in the data set on TLR7/8 [4] (post-dose), the “Time of peak TLR7/8 target modulation” value is reported as 2 h. Further, the “Disease activity in mouse models of SLE” value in the data set with mouse models of SLE is “suppress disease activity”. Further, in the data set on mouse models of SLE (lowest efficacious dose in mouse models of SLE), the “Sustained inhibition of IL-6” value is reported as 60%. Also, in data set [5], the “Decrease in CL/F, fed versus fasting” value was “approximately 25%”. Also, the Study intervention-related flatulence entry in data set [6] (SAD cohorts) is on record as “three”. In addition, the “TEAE: Flatulence” value in data set [6] (single dose 3 mg, n = 6) was 4 (66.7) Number (%) of participants.
